Measurements as given in US12606533B2, “3-phenylpropylamine derivative” (DAIICHI SANKYO COMPANY, LIMITED, priority 2023, dated 2026).

Experiments:
SF-1 = biological target: T1, SF-1 (Homo sapiens, UniProt Q13285); experiment: SF1 degradation induction in NCI-H295R SF-1-HiBiT cells (HiBiT DC50); type: cell-based; settings: 24 hr, concentration that induces 50% degradation of SF-1
T1 construct: NCI-H295R SF-1-HiBiT cells with HiBiT tag knocked in at the endogenous SF1 locus; host or cells: NCI-H295R SF-1-HiBiT (knock-in at endogenous locus)
Procedure: NCI-H295R SF-1-HiBiT cells were seeded in a 384-well plate (Thermo Fisher Scientific Inc.) at 1×10^4 cells/50 μL/well and cultured at 37° C. in a 5% CO2 incubator for 24 hr. DMSO solutions of each compound were serially diluted with DMSO using a D300e Digital Dispenser (TECAN), added to a 384-well plate, and cultured in a 5% CO2 incubator at 37° C. for 24 hr. […] After completion of culture, the medium was discarded, and Nano-Glo (registered trade mark) HiBiT Lytic Detection System (Promega, Cat. No. N3040) was added at 20 μL/well and stirred with a plate mixer. Luminescence signals were then detected using a multimode plate reader (EnVision Xcite, PerkinElmer). The SF-1 protein degradation rate was calculated from the amount of luminescence (C) in the compound-free group and the amount of luminescence (T) in the compound-added group, based on the following formula.
The obtained data was analyzed using GraphPad Prism9 (GraphPad Software Inc.) or Genedata Screener (Genedata AG) to calculate the concentration that induces 50% degradation of SF-1 (DC50 value).

NCI-H295R cells = experiment: Proliferation inhibitory action on NCI-H295R (CellTiter-Glo, 7 days); type: cell-based, human; settings: Homo sapiens, NCI-H295R, 168 h
Procedure: DMSO solutions of each compound were serially diluted with DMSO using a D300e Digital Dispenser (TECAN), and added to a 384-well plate (Thermo Fisher Scientific Inc.). NCI-H295R cells were seeded in a 384-well plate at 2×10^3 cells/40 μL/well and cultured for 7 days in a 37° C., 5% CO2 incubator. […] On the first day of culture (day 0) and the seventh day of culture (day 7), 10 μL/well of CellTiter-Glo (registered trademark) 2.0 Assay (Promega) was added, and the luminescence signal was detected using a multimode plate reader (EnVision, PerkinElmer). The cell proliferation rate was calculated from the luminescence amount on the day of compound addition (CO), the luminescence amount of the compound-free group after 7 days of culture (C7), and the luminescence amount of the compound-added group (T7), based on the following formula.

## COc1ccc([C@]2(CCN(Cc3ccc(C4=CC[C@H](CN5CCN(C(=O)c6ccc7c8c6CCCn8c(=O)n7[C@H]6CCC(=O)NC6=O)CC5)CC4)cc3)CC(C)(C)C(F)(F)F)CCOC(C)(C)C2)cc1 [BF6, (3S)-3-{7-[(4-{[(4R)-4′-{[{2-[(4R)-4-(4-Methoxyphenyl)-2,2-dimethyltetrahydro-2H-pyran-4-yl]ethyl}(3,3,3-trifluoro-2,2-dimethylpropyl)amino]methyl}-2,3,4,5-tetrahydro[biphenyl]-4-yl]methyl}piperazin-1-yl)carbonyl]-2-oxo-5,6-dihydro-4H-imidazo[4,5,1-ij}quinolin-1(2H)-yl}piperidine-2,6-dione]
SF-1
  DC50: 10 nM
NCI-H295R cells
  GI50: 75 nM

## COc1ccc([C@]2(CCN(Cc3ccc(C4=CC[C@H](CN5CCN(C(=O)c6ccc7c8c6CCCn8c(=O)n7[C@@H]6CCC(=O)NC6=O)CC5)CC4)cc3)CC(C)(C)C(F)(F)F)CCOC(C)(C)C2)cc1 [BG5, (3R)-3-{7-[(4-{[(4R)-4′-{[{2-[(4R)-4-(4-Methoxyphenyl)-2,2-dimethyltetrahydro-2H-pyran-4-yl]ethyl}(3,3,3-trifluoro-2,2-dimethylpropyl)amino]methyl}-2,3,4,5-tetrahydro[biphenyl]-4-yl]methyl}piperazin-1-yl)carbonyl]-2-oxo-5,6-dihydro-4H-imidazo[4,5,1-ij]quinolin-1(2H)-yl}piperidine-2,6-dione]
SF-1
  DC50: 9.2 nM
NCI-H295R cells
  GI50: 84 nM

## COc1ccc([C@]2(CCN(Cc3ccc(C4=CCC(C(=O)N5CCC(N(C)c6ccc7c8c6CCCn8c(=O)n7C6CCC(=O)NC6=O)CC5)CC4)c(F)c3)CC(C)(C)C(F)(F)F)CCOC(C)(C)C2)cc1 (stereo partly drawn) [BH5, 3-{7-[{1-[(2′-Fluoro-4′-{[{2-[(4R)-4-(4-methoxyphenyl)-2,2-dimethyltetrahydro-2H-pyran-4-yl]ethyl}(3,3,3-trifluoro-2,2-dimethylpropyl)amino]methyl}-2,3,4,5-tetrahydro[biphenyl]-4-yl)carbonyl]piperidin-4-yl}(methyl)amino]-2-oxo-5,6-dihydro-4H-imidazo[4,5,1-ij]quinolin-1(2H)-yl}piperidine-2,6-dione]
SF-1
  DC50: 7.7 nM
NCI-H295R cells
  GI50: 79 nM

## COc1ccc([C@]2(CCN(Cc3ccc(C4=CC[C@H](CN5CCN(C(=O)c6ccc7c(c6)n(C)c(=O)n7C6CCC(=O)NC6=O)CC5)CC4)cc3)CC(C)(C)C(F)(F)F)CCOC(C)(C)C2)cc1 (stereo partly drawn) [BI2, 3-{5-[(4-{[(4R)-4′-{[{2-[(4R)-4-(4-Methoxyphenyl)-2,2-dimethyltetrahydro-2H-pyran-4-yl]ethyl)(3,3,3-trifluoro-2,2-dimethylpropyl)amino]methyl}-2,3,4,5-tetrahydro[biphenyl]-4-yl]methyl}piperazin-1-yl)carbonyl]-3-methyl-2-oxo-2,3-dihydro-1H-benzimidazol-1-yl}piperidine-2,6-dione]
SF-1
  DC50: 11 nM
NCI-H295R cells
  GI50: 79 nM

## COc1ccc([C@]2(CCN(Cc3ccc(C4=CCC(CN5CCN(C(=O)c6cc7c(cn6)n(C6CCC(=O)NC6=O)c(=O)n7C)CC5)CC4)cc3)CC(C)(C)C(F)(F)F)CCOC(C)(C)C2)cc1 (stereo partly drawn) [BJ6, 3-[6-({4-[(4′-{[{2-[(4R)-4-(4-Methoxyphenyl)-2,2-dimethyltetrahydro-2H-pyran-4-yl]ethyl}(3,3,3-trifluoro-2,2-dimethylpropyl)amino]methyl}-2,3,4,5-tetrahydro[biphenyl]-4-yl)methyl]piperazin-1-yl}carbonyl)-1-methyl-2-oxo-1,2-dihydro-3H-imidazo[4,5-c]pyridin-3-yl]piperidine-2,6-dione]
SF-1
  DC50: 17 nM
NCI-H295R cells
  GI50: 97 nM

## COc1ccc([C@]2(CCN(Cc3ccc(C4=CC[C@@H](C(=O)N5CCC(Nc6ccc7c8c6CCCn8c(=O)n7C6CCC(=O)NC6=O)CC5)CC4)c(F)c3)CC(C)(C)C(F)(F)F)CCOC(C)(C)C2)cc1 (stereo partly drawn) [BL4, 3-{7-[(1-{[(4S)-2′-Fluoro-4′-{[{2-[(4R)-4-(4-methoxyphenyl)-2,2-dimethyltetrahydro-2H-pyran-4-yl]ethyl)(3,3,3-trifluoro-2,2-dimethylpropyl)amino]methyl}-2,3,4,5-tetrahydro[biphenyl]-4-yl]carbonyl}piperidin-4-yl)amino]-2-oxo-5,6-dihydro-4H-imidazo[4,5,1-ij]quinolin-1(2H)-yl}piperidine-2,6-dione]
SF-1
  DC50: 3.1 nM
NCI-H295R cells
  GI50: 43 nM

## COc1ccc([C@]2(CCN(Cc3ccc(C4=CC[C@H](C(=O)N5CCC(Nc6ccc7c8c6OCCn8c(=O)n7C6CCC(=O)NC6=O)CC5)CC4)c(F)c3)CC(C)(C)C(F)(F)F)CCOC(C)(C)C2)cc1 (stereo partly drawn) [BM10, 3-{7-[(1-{[(4R)-2′-Fluoro-4′-{[{2-[(4R)-4-(4-methoxyphenyl)-2,2-dimethyltetrahydro-2H-pyran-4-yl]ethyl)(3,3,3-trifluoro-2,2-dimethylpropyl)amino]methyl}-2,3,4,5-tetrahydro[biphenyl]-4-yl]carbonyl}piperidin-4-yl)amino]-2-oxo-4,5-dihydroimidazo[1,5,4-de][1,4]benzoxazin-1(2H)-yl}piperidine-2,6-dione]
SF-1
  DC50: 2.2 nM
NCI-H295R cells
  GI50: 22 nM

## COc1ccc([C@]2(CCN(Cc3ccc(C4=CC[C@@H](C(=O)N5CCC(Nc6ccc7c8c6OCCn8c(=O)n7C6CCC(=O)NC6=O)CC5)CC4)c(F)c3)CC(C)(C)C(F)(F)F)CCOC(C)(C)C2)cc1 (stereo partly drawn) [BN2, 3-{7-[(1-{[(4S)-2′-Fluoro-4′-{[{2-[(4R)-4-(4-methoxyphenyl)-2,2-dimethyltetrahydro-2H-pyran-4-yl]ethyl}(3,3,3-trifluoro-2,2-dimethylpropyl)amino]methyl}-2,3,4,5-tetrahydro[biphenyl]-4-yl]carbonyl}piperidin-4-yl)amino]-2-oxo-4,5-dihydroimidazo[1,5,4-de][1,4]benzoxazin-1(2H)-yl}piperidine-2,6-dione]
SF-1
  DC50: 2.3 nM
NCI-H295R cells
  GI50: 31 nM

## COc1ccc([C@]2(CCN(Cc3ccc(C4=CC[C@H](C(=O)N5CCC(Nc6ccc7c(c6)CN(C6CCC(=O)NC6=O)C7=O)CC5)CC4)cc3)CC(C)(C)C(F)(F)F)CCOC(C)(C)C2)cc1 (stereo partly drawn) [BO4, 3-{5-[(1-{[(4R)-4′-{[{2-[(4R)-4-(4-Methoxyphenyl)-2,2-dimethyltetrahydro-2H-pyran-4-yl]ethyl)(3,3,3-trifluoro-2,2-dimethylpropyl)amino]methyl}-2,3,4,5-tetrahydro[biphenyl]-4-yl]carbonyl}piperidin-4-yl)amino]-1-oxo-1,3-dihydro-2H-isoindol-2-yl}piperidine-2,6-dione]
SF-1
  DC50: 15 nM
NCI-H295R cells
  GI50: 129 nM

## COc1ccc([C@]2(CCN(Cc3ccc(C4=CC[C@H](C(=O)N5CCN(Cc6cc(F)c7c(c6)n(C)c(=O)n7C6CCC(=O)NC6=O)CC5)CC4)cc3)CC(C)(C)C(F)(F)F)CCOC(C)(C)C2)cc1 (stereo partly drawn) [BP6, 3-{7-Fluoro-5-[(4-{[(4R)-4′-{[{2-[(4R)-4-(4-methoxyphenyl)-2,2-dimethyltetrahydro-2H-pyran-4-yl]ethyl}(3,3,3-trifluoro-2,2-dimethylpropyl)amino]methyl}-2,3,4,5-tetrahydro[biphenyl]-4-yl]carbonyl}piperazin-1-yl)methyl]-3-methyl-2-oxo-2,3-dihydro-1H-benzimidazol-1-yl}piperidine-2,6-dione]
SF-1
  DC50: 12 nM
NCI-H295R cells
  GI50: 71 nM

## COc1ccc([C@]2(CCN(Cc3ccc(C4=CC[C@H](C(=O)N5CCN(Cc6ccc7c(c6)n(C)c(=O)n7C6CCC(=O)NC6=O)CC5)CC4)c(F)c3)CC(C)(C)C(F)(F)F)CCOC(C)(C)C2)cc1 (stereo partly drawn) [BQ4, 3-{5-[(4-{[(4R)-2′-Fluoro-4′-{[{2-[(4R)-4-(4-methoxyphenyl)-2,2-dimethyltetrahydro-2H-pyran-4-yl]ethyl}(3,3,3-trifluoro-2,2-dimethylpropyl)amino]methyl}-2,3,4,5-tetrahydro[biphenyl]-4-yl]carbonyl}piperazin-1-yl)methyl]-3-methyl-2-oxo-2,3-dihydro-1H-benzimidazol-1-yl}piperidine-2,6-dione]
SF-1
  DC50: 4.5 nM
NCI-H295R cells
  GI50: 28 nM

## COc1ccc([C@]2(CCN(Cc3ccc(C4=CC[C@H](C(=O)N5CCC(Nc6ccc7c(c6)n(C)c(=O)n7C6CCC(=O)NC6=O)CC5)CC4)c(F)c3)CC(C)(C)C(F)(F)F)CCOC(C)(C)C2)cc1 (stereo partly drawn) [BR3, 3-{5-[(1-{[(4R)-2′-Fluoro-4′-{[{2-[(4R)-4-(4-methoxyphenyl)-2,2-dimethyltetrahydro-2H-pyran-4-yl]ethyl)(3,3,3-trifluoro-2,2-dimethylpropyl)amino]methyl}-2,3,4,5-tetrahydro[biphenyl]-4-yl]carbonyl}piperidin-4-yl)amino]-3-methyl-2-oxo-2,3-dihydro-1H-benzimidazol-1-yl}piperidine-2,6-dione]
SF-1
  DC50: 2.2 nM
NCI-H295R cells
  GI50: 23 nM
